Assay results published in ChEMBL document CHEMBL1201862, “PubChem BioAssay data set” (2004).
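Briefly, cells in 96-well plates were exposed to five compound concentrations for 48 h, and endpoints were estimated by linear interpolation. GI50 = concentration required for 50% inhibition of growth.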 Active and inactive are the calls of the source. Rule as the data show it: active = GI50 up to about 1.1 µM and inactive = higher.

Key:
Assay in all cases: growth of human tumour cells (NCI), 48 h
[1] = system: NCI-H23
[2] = system: U-251
[3] = system: K562
[4] = system: KM12
[5] = system: HCT-116
[6] = system: A549
[7] = system: HL-60
[8] = system: DMS-114
[9] = system: UO-31
[10] = system: NCI-H226
[11] = system: SNB-19
[12] = system: A498
[13] = system: OVCAR-4
[14] = system: LXFL 529
[15] = system: MOLT-4
[16] = system: OVCAR-5
[17] = system: HOP-62
[18] = system: XF498
[19] = system: SF-295
[20] = system: OVCAR-8
[21] = system: NCI-H522
[22] = system: CAKI-1
[23] = system: OVCAR-3
[24] = system: SN12C
[25] = system: SNB-75
[26] = system: UACC-257
[27] = system: 786-0
[28] = system: SK-OV-3
[29] = system: SR
[30] = system: SF-268
[31] = system: NCI-H460
[32] = system: HOP-92
[33] = system: Malme-3M
[34] = system: DLD-1
[35] = system: COLO 205
[36] = system: UACC-62
[37] = system: EKVX
[38] = system: RPMI-8226
[39] = system: HT-29
[40] = system: M14
[41] = system: M19-MEL
[42] = system: SNB-78
[43] = system: TK-10
[44] = system: ACHN
[45] = system: CCRF-CEM
[46] = system: IGROV-1
[47] = system: SK-MEL-2
[48] = system: SK-MEL-28
[49] = system: SW-620
[50] = system: SF-539
[51] = system: LOX IMVI
[52] = system: SK-MEL-5
[53] = system: RXF 393
[54] = system: HCC 2998
[55] = system: KM-20L2
[56] = system: HOP-18
[57] = system: DMS-273
[58] = system: HCT-15

Nc1ccccc1/C(O)=C1/CCOC1=O
GI50 [1]: > 100 µM (inactive) | GI50 [2]: > 100 µM (inactive) | GI50 [3]: > 100 µM (inactive) | GI50 [4]: > 100 µM (inactive) | GI50 [5]: > 100 µM (inactive) | GI50 [6]: > 100 µM (inactive) | GI50 [7]: > 100 µM (inactive) | GI50 [8]: > 100 µM (inactive) | GI50 [9]: > 100 µM (inactive) | GI50 [10]: > 100 µM (inactive) | GI50 [11]: > 100 µM (inactive) | GI50 [12]: > 100 µM (inactive) | GI50 [13]: > 100 µM (inactive) | GI50 [14]: > 100 µM (inactive) | GI50 [15]: > 100 µM (inactive) | GI50 [16]: > 100 µM (inactive) | GI50 [17]: > 100 µM (inactive) | GI50 [18]: > 100 µM (inactive) | GI50 [19]: > 100 µM (inactive) | GI50 [20]: > 100 µM (inactive) | GI50 [21]: > 100 µM (inactive) | GI50 [22]: > 100 µM (inactive) | GI50 [23]: > 100 µM (inactive) | GI50 [24]: > 100 µM (inactive) | GI50 [25]: > 100 µM (inactive) | GI50 [26]: > 100 µM (inactive) | GI50 [27]: > 100 µM (inactive) | GI50 [28]: > 100 µM (inactive) | GI50 [29]: > 100 µM (inactive) | GI50 [30]: > 100 µM (inactive) | GI50 [31]: > 100 µM (inactive) | GI50 [32]: > 100 µM (inactive) | GI50 [33]: > 100 µM (inactive) | GI50 [34]: > 100 µM (inactive) | GI50 [35]: > 100 µM (inactive) | GI50 [36]: > 100 µM (inactive) | GI50 [37]: > 100 µM (inactive) | GI50 [38]: > 100 µM (inactive) | GI50 [39]: > 100 µM (inactive) | GI50 [40]: > 100 µM (inactive) | GI50 [41]: > 100 µM (inactive) | GI50 [42]: > 100 µM (inactive) | GI50 [43]: > 100 µM (inactive) | GI50 [44]: > 100 µM (inactive) | GI50 [45]: > 100 µM (inactive) | GI50 [46]: > 100 µM (inactive) | GI50 [47]: > 100 µM (inactive) | GI50 [48]: > 100 µM (inactive) | GI50 [49]: > 100 µM (inactive)

CC1(C)COC(c2c(-c3ccccc3)noc2C[S+]([O-])c2ccccc2)=N1 (stereo not given)
GI50 [1]: 32.3 µM (inactive) | GI50 [2]: 32.5 µM (inactive) | GI50 [3]: 40.9 µM (inactive) | GI50 [50]: 59.6 µM (inactive) | GI50 [4]: 36.1 µM (inactive) | GI50 [5]: 28.2 µM (inactive) | GI50 [6]: 46 µM (inactive) | GI50 [7]: 23.9 µM (inactive) | GI50 [8]: 21.9 µM (inactive) | GI50 [9]: 29.2 µM (inactive) | GI50 [51]: 41 µM (inactive) | GI50 [10]: 30.3 µM (inactive) | GI50 [11]: > 100 µM (inactive) | GI50 [12]: 20.3 µM (inactive) | GI50 [13]: 62.8 µM (inactive) | GI50 [14]: 30.2 µM (inactive) | GI50 [15]: 22.5 µM (inactive) | GI50 [52]: 38.3 µM (inactive) | GI50 [16]: > 100 µM (inactive) | GI50 [17]: 31.4 µM (inactive) | GI50 [19]: 34.6 µM (inactive) | GI50 [20]: 37.3 µM (inactive) | GI50 [53]: > 100 µM (inactive) | GI50 [21]: 36.1 µM (inactive) | GI50 [22]: 61.5 µM (inactive) | GI50 [23]: > 100 µM (inactive) | GI50 [24]: 31.3 µM (inactive) | GI50 [25]: 29.6 µM (inactive) | GI50 [26]: 52.1 µM (inactive) | GI50 [54]: 32.3 µM (inactive) | GI50 [27]: 76.6 µM (inactive) | GI50 [28]: 72.3 µM (inactive) | GI50 [29]: 29.1 µM (inactive) | GI50 [30]: 19.9 µM (inactive) | GI50 [31]: 28.3 µM (inactive) | GI50 [55]: 46.3 µM (inactive) | GI50 [33]: 46.1 µM (inactive) | GI50 [34]: > 100 µM (inactive) | GI50 [35]: 40.4 µM (inactive) | GI50 [36]: 20.7 µM (inactive) | GI50 [37]: 96.6 µM (inactive) | GI50 [38]: 22.1 µM (inactive) | GI50 [39]: 38.5 µM (inactive) | GI50 [40]: 48.9 µM (inactive) | GI50 [41]: 45.1 µM (inactive) | GI50 [56]: 24.9 µM (inactive) | GI50 [57]: 31.2 µM (inactive) | GI50 [42]: 7.48 µM (inactive) | GI50 [43]: > 100 µM (inactive) | GI50 [44]: 40 µM (inactive) | GI50 [45]: 29.2 µM (inactive) | GI50 [58]: 27.4 µM | GI50 [46]: 88.5 µM (inactive) | GI50 [47]: 24.5 µM (inactive) | GI50 [48]: 33.1 µM (inactive) | GI50 [49]: > 100 µM (inactive)
